This test has as its target T1, ΔF508-CFTR (Homo sapiens, UniProt P13569, DEL508-508).
T1 construct: host or cells: CFBE41o-, doxycycline-inducible
Nature of the test: CFTR cell surface levels using HRP-tagged ΔF508-CFTR expressing CFBE cells, in the presence of a co-corrector. The class given is cell-based. From the text: Measuring CFTR Cell Surface Levels Using HRP-Tagged ΔF508-CFTR Expressing CFBE Cells
The HRP-tagged ΔF508-CFTR cell assay measures the expression of CFTR-ΔF508 at the plasma membrane. CFTR-ΔF508 has a folding defect leading to absence of protein at the plasma membrane. This assay is used to evaluate the capacity of compounds to increase the expression of CFTR-ΔF508 at the plasma membrane. The CFTR-ΔF508 is tagged with HRP (horse radish peroxidase enzyme) within the ECL4 (Extracellular loop 4) of CFTR (Phuan, P.-W. et al. Synergy-based small-molecule screen using a human lung epithelial cell line yields ΔF508-CFTR correctors that augment VX-809 maximal efficacy. Mol. Pharmacol. 86, 42-51 (2014)). When HRP-tagged ΔF508-CFTR is present at the plasma membrane, the HRP enzyme activity can be measured. The amount of CFTR-ΔF508 that can be rescued to the plasma membrane is correlated with the amount of functional enzyme that can be measured.
There are several ways to measure the capacity of compounds to rescue CFTR-ΔF508 to the plasma membrane; either compounds are evaluated on their own and the impact on plasma membrane levels is measured or compounds are evaluated in combination with a co-corrector, i.e. a compound that rescues CFTR-ΔF508 to the plasma membrane but rescue can be enhanced by addition of compounds due to a complementary mode of action.
Activity of Compounds in Combination with Co-Corrector:
For this purpose doxycycline-inducible ΔF508-CFTR-HRP expressing CFBE4lo− cells (obtained from Gergely Lukacs, McGill University) were maintained in MEM (Minimum Essential Medium, Gibco; 31095) supplemented with 10% fetal bovine serum (Hyclone; SV30160.03) under puromycin (3 μg/mL) and G418 selection (0.2 mg/mL). For compound testing, cells were seeded at 4000 cells/well in white 384-well plates (Greiner; 781080) in 50 μL of medium containing 0.5 μg/mL doxycycline and incubated for 68 hours at 37° C., 5% CO2. On day four, 10 μL of test compounds diluted in PBS (phosphate buffered saline) were added to the plates at a final DMSO concentration of 0.1%. In order to measure compound synergy with a co-corrector, 3 μM co-corrector (3-[(2R,4R)-4-({[1-(2,2-difluoro-1,3-benzodioxol-5-yl)cyclopropyl]carbonyl}amino)-7-methoxy-3,4-dihydro-2H-chromen-2-yl]benzoic acid) was added along with test compounds. All compound plates contained negative controls (DMSO) and positive controls (3 μM co-corrector). Cell plates were incubated at 33° C., 5% CO2 for 20 hours. On day five, the cells were washed five times with phosphate-buffered saline, and HRP activity was assayed by the addition of 50 μL/well of HRP substrate (SuperSignal™ West Pico Chemiluminescent Substrate, Thermo Scientific; 34080). After incubation for 15 minutes in the dark, the chemiluminescence was measured using a plate reader (EnVision®, Perkin Elmer). Raw data were normalized to percentage activity values using the equation: 100×(Sample−Negative control)/(Positive control−Negative Control).

Setting [1] is: HRP-tagged ΔF508-CFTR CFBE cells, in the presence of 3 μM co-corrector.
The mark [2] stands for this setting: HRP-tagged ΔF508-CFTR CFBE cells, in the presence of 3 μM co-corrector, read-out: EC50.

Where two headings read alike, the source gives them in different places.

T1 sequence (P13569 with tags, fused parts or gaps DEL508-508): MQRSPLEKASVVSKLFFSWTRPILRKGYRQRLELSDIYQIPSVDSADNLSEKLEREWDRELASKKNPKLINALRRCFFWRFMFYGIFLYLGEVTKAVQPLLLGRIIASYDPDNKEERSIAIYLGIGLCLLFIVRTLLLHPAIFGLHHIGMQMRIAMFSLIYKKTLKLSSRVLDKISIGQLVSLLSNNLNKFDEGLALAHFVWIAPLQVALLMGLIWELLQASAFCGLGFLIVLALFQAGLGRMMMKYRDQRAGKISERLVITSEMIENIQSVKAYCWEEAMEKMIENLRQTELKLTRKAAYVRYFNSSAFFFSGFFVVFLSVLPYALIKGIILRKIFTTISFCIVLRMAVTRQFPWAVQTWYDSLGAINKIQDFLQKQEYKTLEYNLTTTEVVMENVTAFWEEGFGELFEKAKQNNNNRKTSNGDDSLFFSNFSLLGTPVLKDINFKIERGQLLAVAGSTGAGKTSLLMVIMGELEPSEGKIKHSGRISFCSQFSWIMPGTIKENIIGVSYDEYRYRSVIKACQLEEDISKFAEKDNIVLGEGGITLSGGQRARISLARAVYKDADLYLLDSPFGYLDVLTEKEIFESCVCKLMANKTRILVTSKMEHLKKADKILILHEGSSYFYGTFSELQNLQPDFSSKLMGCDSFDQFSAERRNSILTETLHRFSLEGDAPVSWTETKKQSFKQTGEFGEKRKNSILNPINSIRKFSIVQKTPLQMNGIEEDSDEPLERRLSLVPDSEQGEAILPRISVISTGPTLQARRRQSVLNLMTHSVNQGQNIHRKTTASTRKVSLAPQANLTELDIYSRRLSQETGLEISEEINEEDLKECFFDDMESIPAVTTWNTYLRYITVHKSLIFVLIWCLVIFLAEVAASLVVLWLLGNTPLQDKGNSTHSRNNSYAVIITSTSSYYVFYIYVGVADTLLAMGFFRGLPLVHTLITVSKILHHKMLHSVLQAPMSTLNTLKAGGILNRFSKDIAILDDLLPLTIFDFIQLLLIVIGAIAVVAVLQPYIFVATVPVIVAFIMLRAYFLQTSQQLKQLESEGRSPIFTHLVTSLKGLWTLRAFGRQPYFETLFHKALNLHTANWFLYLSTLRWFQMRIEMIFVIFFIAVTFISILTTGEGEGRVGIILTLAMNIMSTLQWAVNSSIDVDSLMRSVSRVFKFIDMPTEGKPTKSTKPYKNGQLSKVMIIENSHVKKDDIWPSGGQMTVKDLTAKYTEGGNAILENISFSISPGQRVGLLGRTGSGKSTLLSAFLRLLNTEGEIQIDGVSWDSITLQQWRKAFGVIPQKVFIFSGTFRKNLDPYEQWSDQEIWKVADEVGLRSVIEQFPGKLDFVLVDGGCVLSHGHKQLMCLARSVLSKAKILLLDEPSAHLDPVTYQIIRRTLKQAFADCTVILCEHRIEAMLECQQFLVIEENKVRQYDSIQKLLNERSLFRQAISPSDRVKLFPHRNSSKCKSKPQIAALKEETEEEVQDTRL

In the case of `CC(C)c1nn(-c2ccc(F)cc2)c2nc(C(=O)NS(C)(=O)=O)cc(N3CC[C@@H](O)[C@H](F)C3)c12` [Compound 344, 4-[(3R,4R)-3-fluoro-4-hydroxypiperidin-1-yl]-1-(4-fluorophenyl)-N-(methanesulfonyl)-3-(propan-2-yl)-1H-pyrazolo[3,4-b]pyridine-6-carboxamide], the “% Activation” value under setting [1] was 374.5%. Also, under setting [2], the EC50 (usually the concentration that produces a half-maximal response) came to 1060 nM.
For `COCC1(F)CCN(c2cc(C(=O)NS(C)(=O)=O)nc3c2c(C(C)C)nn3-c2ccc(F)cc2)CC1` [Compound 345, 4-[4-fluoro-4-(methoxymethyl)piperidin-1-yl]-1-(4-fluorophenyl)-N-(methanesulfonyl)-3-(propan-2-yl)-1H-pyrazolo[3,4-b]pyridine-6-carboxamide] the same measures were 301.1% and 223 nM.
The matching figures for `O=C(NS(=O)(=O)N1CCOCC1)c1cc(OCC2CCOCC2)c2c(C3CCC3)nn(-c3ccccc3)c2n1` [Compound 358, 3-cyclobutyl-N-(morpholine-4-sulfonyl)-4-[(oxan-4-yl)methoxy]-1-phenyl-1H-pyrazolo[3,4-b]pyridine-6-carboxamide]: 242.33% and 89.9 nM.
For `O=C(NS(=O)(=O)N1CCC(N2CCOCC2)CC1)c1cc(OCC2CCOCC2)c2c(C3CCC3)nn(-c3ccccc3)c2n1` [Compound 359, 3-cyclobutyl-N-[4-(morpholin-4-yl)piperidine-1-sulfonyl]-4-[(oxan-4-yl)methoxy]-1-phenyl-1H-pyrazolo[3,4-b]pyridine-6-carboxamide] the same measures were 236.25% and 299 nM.
Take `CN1CCN(C(=O)C2CCN(S(=O)(=O)NC(=O)c3cc(OCC4CCOCC4)c4c(C5CCC5)nn(-c5ccccc5)c4n3)CC2)CC1` [Compound 360, 3-cyclobutyl-N-[4-(4-methylpiperazine-1-carbonyl)piperidine-1-sulfonyl]-4-[(oxan-4-yl)methoxy]-1-phenyl-1H-pyrazolo[3,4-b]pyridine-6-carboxamide]: under setting [1], the “% Activation” value worked out at 182.8%. The EC50 under setting [2] turned out to be 101 nM.
The matching figures for `CN1CCN(S(=O)(=O)NC(=O)c2cc(OCC3CCOCC3)c3c(C4CCC4)nn(-c4ccccc4)c3n2)CC1` [Compound 361, 3-cyclobutyl-N-(4-methylpiperazine-1-sulfonyl)-4-[(oxan-4-yl)methoxy]-1-phenyl-1H-pyrazolo[3,4-b]pyridine-6-carboxamide]: 204.1% and 181 nM.
For `CC(C)(C)S(=O)(=O)NC(=O)c1cc(OCC2CCOCC2)c2c(C3CCC3)nn(-c3ccccc3)c2n1` [Compound 362, 3-cyclobutyl-N-(2-methylpropane-2-sulfonyl)-4-[(oxan-4-yl)methoxy]-1-phenyl-1H-pyrazolo[3,4-b]pyridine-6-carboxamide] the same measures were 195.75% and 414 nM.
The matching figures for `C#CCCS(=O)(=O)NC(=O)c1cc(-c2ccc(N=[N+]=[N-])cc2)c2c(C(C)C)nn(-c3cccc(N(C)C)c3)c2n1` [Compound 363, 4-(4-azidophenyl)-N-(but-3-yne-1-sulfonyl)-1-[3-(dimethylamino)phenyl]-3-(propan-2-yl)-1H-pyrazolo[3,4-b]pyridine-6-carboxamide]: 415.8% and 116 nM.
With `COCC1CCN(c2cc(C(=O)NS(=O)(=O)CC#N)nc3c2c(C2CCC2)nn3-c2ccccc2)CC1` [Compound 364, N-(cyanomethanesulfonyl)-3-cyclobutyl-4-[4-(methoxymethyl)piperidin-1-yl]-1-phenyl-1H-pyrazolo[3,4-b]pyridine-6-carboxamide], the “% Activation” value under setting [1] is 575%. Moreover, under setting [2], the EC50 worked out at 553 nM.
As for `COCC1CCN(c2cc(C(=O)NS(=O)(=O)CCn3cccn3)nc3c2c(C2CCC2)nn3-c2ccccc2)CC1` [Compound 372, 3-cyclobutyl-4-[4-(methoxymethyl)piperidin-1-yl]-1-phenyl-N-[2-(1H-pyrazol-1-yl)ethanesulfonyl]-1H-pyrazolo[3,4-b]pyridine-6-carboxamide], under setting [1], the “% Activation” value was 615.7%. Moreover, the EC50 under setting [2] worked out at 2560 nM.
In the case of `CC(C)c1nn(-c2ccc(F)cc2)c2nc(C(=O)NS(C)(=O)=O)cc(N3CCC(N4CCOCC4)CC3)c12` [Compound 411, 1-(4-fluorophenyl)-N-(methanesulfonyl)-4-[4-(morpholin-4-yl)piperidin-1-yl]-3-(propan-2-yl)-1H-pyrazolo[3,4-b]pyridine-6-carboxamide], the EC50 stood at 478 nM. For the same molecule, the “% Activation” value under setting [1] was found to be 505%.
For `CC(C)c1nn(-c2ccc(F)cc2)c2nc(C(=O)NS(=O)(=O)N(C)C)cc(N3CCC(N4CCOCC4)CC3)c12` [Compound 412, N-(dimethylsulfamoyl)-1-(4-fluorophenyl)-4-[4-(morpholin-4-yl)piperidin-1-yl]-3-(propan-2-yl)-1H-pyrazolo[3,4-b]pyridine-6-carboxamide] the same measures were 201 nM and 436.4%.
Take `CCS(=O)(=O)NC(=O)c1cc(N2CCC(N3CCOCC3)CC2)c2c(C(C)C)nn(-c3ccc(F)cc3)c2n1` [Compound 413, N-(ethanesulfonyl)-1-(4-fluorophenyl)-4-[4-(morpholin-4-yl)piperidin-1-yl]-3-(propan-2-yl)-1H-pyrazolo[3,4-b]pyridine-6-carboxamide]: the EC50 came out at 90.6 nM. For the same molecule, the “% Activation” value under setting [1] is recorded as 455.9%.
For `CC(C)c1nn(-c2ccc(F)cc2)c2nc(C(=O)NS(=O)(=O)C3CC3)cc(N3CCC(N4CCOCC4)CC3)c12` [Compound 414, N-(cyclopropanesulfonyl)-1-(4-fluorophenyl)-4-[4-(morpholin-4-yl)piperidin-1-yl]-3-(propan-2-yl)-1H-pyrazolo[3,4-b]pyridine-6-carboxamide] the same measures were 159 nM and 508.3%.
As for `CCS(=O)(=O)NC(=O)c1cc(N2CCC(N3CCCCC3)CC2)c2c(C3CCC3)nn(-c3ccccc3)c2n1` [Compound 427, 4-([1,4′-bipiperidin]-1′-yl)-3-cyclobutyl-N-(ethanesulfonyl)-1-phenyl-1H-pyrazolo[3,4-b]pyridine-6-carboxamide], the EC50 is 162 nM. For the same molecule, the “% Activation” value under setting [1] came out at 419.5%.
For `O=C(NS(=O)(=O)C1CC1)c1cc(N2CCC(N3CCCCC3)CC2)c2c(C3CCC3)nn(-c3ccccc3)c2n1` [Compound 428, 4-([1,4′-bipiperidin]-1′-yl)-3-cyclobutyl-N-(cyclopropanesulfonyl)-1-phenyl-1H-pyrazolo[3,4-b]pyridine-6-carboxamide] the same measures were 77.3 nM and 434.7%.
`CC(C)Oc1nn(C2CCCCC2)c2nc(C(=O)NS(=O)(=O)N(C)C)cc(-c3ccc(CN4CCCCC4)cc3)c12` [Compound 443, 1-cyclohexyl-N-(dimethylsulfamoyl)-4-{4-[(piperidin-1-yl)methyl]phenyl}-3-[(propan-2-yl)oxy]-1H-pyrazolo[3,4-b]pyridine-6-carboxamide]: under setting [1], the “% Activation” value is 332.5%. Also, the EC50 under setting [2] worked out at 184 nM.
Turning to `CCS(=O)(=O)NC(=O)c1cc(N2CCC(C(C)N3CCOCC3)CC2)c2c(C3CCC3)nn(-c3ccc(F)cc3)c2n1` (centres unmarked) [Compound 446, 3-cyclobutyl-N-(ethanesulfonyl)-1-(4-fluorophenyl)-4-{4-[1-(morpholin-4-yl)ethyl]piperidin-1-yl}-1H-pyrazolo[3,4-b]pyridine-6-carboxamide], under setting [1], the “% Activation” value was 669.9%. Under setting [2], the EC50 amounted to 77.4 nM.
The matching figures for `O=C(NS(=O)(=O)C1CCOC1)c1cc(-c2ccc(CN3CCOCC3)cc2)c2c(OC3CCC3)nn(C3CCCCC3)c2n1` (centres unmarked) [Compound 467, 3-(cyclobutyloxy)-1-cyclohexyl-4-{4-[(morpholin-4-yl)methyl]phenyl}-N-(oxolane-3-sulfonyl)-1H-pyrazolo[3,4-b]pyridine-6-carboxamide]: 229.15% and 270 nM.

Source of the values: patent US10259810B2, “N-sulfonylated pyrazolo[3,4-b]pyridin-6-carboxamides and method of use” (AbbVie S.à.r.l., priority 2015, dated 2019).
